Converted amounts (≈) assume the structure as drawn.

The test system of assay [1] is Candida albicans. Briefly: Antifungal activity against Candida albicans by dilution method. The format is functional.
Assay [2] relates to Mycobacterium tuberculosis. Briefly: Antimycobacterial activity against Mycobacterium tuberculosis H37Rv by MABA method. The format is functional.

For `O=C(/C=C/c1ccccc1)c1ccc(N2C(=O)C(Br)=C(Br)C2=O)cc1`, in assay [1], the MIC turned out to be 250 µg/mL (≈ 542 µM). Further, the MIC90 in assay [2] came to 500 µg/mL (≈ 1080 µM).

For `COc1ccc(/C=C/C(=O)c2ccc(N3C(=O)C(Br)=C(Br)C3=O)cc2)cc1OC`, the MIC in assay [1] is 500 µg/mL (≈ 959 µM). The MIC90 in assay [2] stood at 500 µg/mL (≈ 959 µM).

Take `O=C(/C=C/c1ccccc1O)c1ccc(N2C(=O)C(Br)=C(Br)C2=O)cc1`: 100 µg/mL (≈ 210 µM) was the least that counted as inhibitory in assay [1] (MIC). The compound further had an MIC90 in assay [2] of 50 µg/mL (≈ 105 µM).

With `O=C(/C=C/c1ccc(Cl)cc1Cl)c1ccc(N2C(=O)C(Br)=C(Br)C2=O)cc1`, in assay [1], the MIC came out at 500 µg/mL (≈ 943 µM). The MIC90 in assay [2] amounted to 500 µg/mL (≈ 943 µM).

NYSTATIN had an MIC in assay [1] of 100 µg/mL.

As to `O=C(/C=C/c1ccc(Cl)cc1)c1ccc(N2C(=O)C(Br)=C(Br)C2=O)cc1`, the MIC in assay [1] is 250 µg/mL (≈ 504 µM). This compound showed an MIC90 in assay [2] of 100 µg/mL (≈ 202 µM).

In assay [1], `COc1ccc(/C=C/C(=O)c2ccc(N3C(=O)C(Br)=C(Br)C3=O)cc2)cc1[N+](=O)[O-]` came in with an MIC of 1000 µg/mL (≈ 1870 µM). In addition, in assay [2], the MIC90 was 1000 µg/mL (≈ 1870 µM).

Compound `O=C(/C=C/c1ccccc1Cl)c1ccc(N2C(=O)C(Br)=C(Br)C2=O)cc1` came in with an MIC in assay [1] of 1000 µg/mL (≈ 2020 µM). This compound registered an MIC90 in assay [2] of 250 µg/mL (≈ 504 µM).

As to `COc1ccc(/C=C/C(=O)c2ccc(N3C(=O)C(Br)=C(Br)C3=O)cc2)cc1`, in assay [1], the MIC amounted to 1000 µg/mL (≈ 2040 µM). The compound further returned an MIC90 in assay [2] of 500 µg/mL (≈ 1020 µM).

With `O=C(/C=C/c1cccc([N+](=O)[O-])c1)c1ccc(N2C(=O)C(Br)=C(Br)C2=O)cc1`, the lowest concentration to inhibit growth in assay [1] (MIC) was 250 µg/mL (≈ 494 µM). In assay [2], the MIC90 was determined as 200 µg/mL (≈ 395 µM).

As to `O=C(/C=C/c1ccc(O)cc1)c1ccc(N2C(=O)C(Br)=C(Br)C2=O)cc1`, the minimal inhibitory concentration (MIC) in assay [1] was 150 µg/mL (≈ 314 µM). Also, the MIC90 in assay [2] is 60 µg/mL (≈ 126 µM).

`NNC(=O)c1ccncc1` [ISONIAZID] came in with an MIC90 in assay [2] of 0.2 µg/mL (≈ 1.46 µM).

On to `Cc1ccc(/C=C/C(=O)c2ccc(N3C(=O)C(Br)=C(Br)C3=O)cc2)cc1`, for which the MIC in assay [1] is 1000 µg/mL (≈ 2100 µM). In assay [2], this compound gave an MIC90 of 500 µg/mL (≈ 1050 µM).

In assay [1], `COC1=CC(=O)C[C@@H](C)[C@]12Oc1c(Cl)c(OC)cc(OC)c1C2=O` [GRISEOFULVIN] registered an MIC of 500 µg/mL (≈ 1420 µM).

As a reminder, the MIC is the lowest concentration that inhibits growth of the organism. The term MIC90 denotes the lowest concentration that inhibits either 90% of growth or 90% of the strains tested, depending on the study.

Source of the values: ChEMBL document CHEMBL3046117, “Synthesis of 1-(4-((E)-3-arylacryloyl) phenyl)-3,4-dibromo-1H-pyrrole-2,5-diones and screening for anti-Candida and antituberculosis activity” (2012).
